Measured values reported in ChEMBL document CHEMBL5034041, “Discovery of Meso-(meta-Pyridinium) BODIPY Photosensitizers: In Vitro and In Vivo Evaluations for Antimicrobial Photodynamic Therapy” (J Med Chem, 2021).
Active and inactive are the calls of the source. The rule behind the calls is not given here.

Tests used:
[1] = test system: Candida albicans; experiment: Photodynamic antimicrobial activity against Candida albicans ATCC 14053 preincubated for 15 mins followed by irradiation with 90 mW/cm^2 light for 15 mins and measured after 24 hrs; type: functional; details: ATCC 14053, light or radiation study, time 24.5 hrs
[2] = test system: Staphylococcus aureus; experiment: Photodynamic antimicrobial activity against methicillin resistant Staphylococcus aureus ATCC43300 preincubated for 15 mins followed by irradiation with 90 mW/cm^2 light for 15 mins and measured after 24 hrs; type: functional; details: ATCC43300, light or radiation study, time 24.5 hrs
[3] = test system: Escherichia coli; experiment: Photodynamic antimicrobial activity against Escherichia coli ATCC25922 assessed as decrease in viable cell log count at 2.5 uM preincubated for 15 mins followed by light irradiation at 81 J/cm^2 dose for 15 mins and measured after 36 hrs; type: functional, ATCC 25922; details: time 36.5 hrs
[4] = test system: Escherichia coli; experiment: Photodynamic antimicrobial activity against Escherichia coli ATCC25922 assessed as decrease in viable cell log count at 1.25 uM preincubated for 15 mins followed by light irradiation at 81 J/cm^2 dose for 15 mins and measured after 36 hrs; type: functional, ATCC 25922; details: time 36.5 hrs
[5] = test system: Candida albicans; experiment: Drug uptake in Candida albicans ATCC 14053 at 10 uM incubated at 37 degree for 15 mins by UV-vis absorption spectra analysis relative to control; type: ADME, organism-based; details: 0.25 h
[6] = Drug uptake in Escherichia coli ATCC 25922 at 10 uM incubated at 37 degree for 15 mins by UV-vis absorption spectra analysis relative to control; type: ADME; details: 0.25 h
[7] = test system: Escherichia coli; experiment: Photodynamic antimicrobial activity against Escherichia coli ATCC 25922 preincubated for 15 mins followed by irradiation with 90 mW/cm^2 light for 15 mins and measured after 24 hrs; type: functional; details: ATCC 25922, light or radiation study, time 24.5 hrs
[8] = test system: Staphylococcus aureus; experiment: Photodynamic antimicrobial activity against Staphylococcus aureus […] assessed as loss of microbial viability at 2 uM preincubated for 15 mins followed by light irradiation at 81 J/cm^2 dose for 15 mins and measured after 36 hrs; type: functional; details: time 36.5 hrs
[9] = test system: Escherichia coli; experiment: Photodynamic antimicrobial activity against Escherichia coli ATCC25922 assessed as loss of microbial viability at 2 uM preincubated for 15 mins followed by light irradiation at 81 J/cm^2 dose for 15 mins and measured after 36 hrs; type: functional, ATCC 25922; details: time 36.5 hrs
[10] = test system: Candida albicans; experiment: Photodynamic antimicrobial activity against Candida albicans ATCC14053 assessed as loss of microbial viability at 2 uM preincubated for 15 mins followed by light irradiation at 81 J/cm^2 dose for 15 mins and measured after 36 hrs; type: functional; details: time 36.5 hrs
[11] = Drug uptake in Staphylococcus aureus ATCC 29213 at 10 uM incubated at 37 degree for 15 mins by UV-vis absorption spectra analysis relative to control; type: ADME; details: 0.25 h
[12] = Octanol-water partition coefficient, logP of the compound at 2 uM after 20 hrs by HPLC analysis; type: physicochemical
[13] = test system: Staphylococcus aureus; experiment: Photodynamic antimicrobial activity against Staphylococcus aureus ATCC 29213 preincubated for 15 mins followed by irradiation with 90 mW/cm^2 light for 15 mins and measured after 24 hrs; type: functional; details: ATCC 29213, light or radiation study, time 24.5 hrs
[14] = test system: Escherichia coli; experiment: Photodynamic antimicrobial activity against Escherichia coli ATCC25922 assessed as decrease in viable cell log count at 5 uM preincubated for 15 mins followed by light irradiation at 81 J/cm^2 dose for 15 mins and measured after 36 hrs; type: functional, ATCC 25922; details: time 36.5 hrs
[15] = test system: Staphylococcus aureus; experiment: Photodynamic antimicrobial activity against methicillin resistant Staphylococcus aureus ATCC43300 assessed as loss of microbial viability at 2 uM preincubated for 15 mins followed by light irradiation at 81 J/cm^2 dose for 15 mins and measured after 36 hrs; type: functional; details: time 36.5 hrs
[16] = test system: Cell membrane; experiment: Induction of cell membrane disruption in Candida albicans ATCC14053 at 2.5 uM preincubated for 15 mins followed by irradiated with 81 J/cm^2 light for 15 mins by DAPI staining based confocal laser scanning microscopic analysis; details: time 30.0 min
[17] = test system: Candida albicans; experiment: Photodynamic antimicrobial activity against Candida albicans ATCC14053 assessed as reduction in viable cells log count at 1 uM preincubated in dark for 15 mins followed by light irradiation at 81 J/cm^2 dose for 15 mins and measured after 36 hrs; type: functional; details: time 36.5 hrs
[18] = test system: Candida albicans; experiment: Induction of morphological changes in Candida albicans ATCC 14053 at 10 uM preincubated for 15 mins followed by light irradiation at 90 mW/cm2 for 15 mins by SEM analysis; type: functional, organism-based; details: time 30.0 min
[19] = test system: HaCaT; experiment: Cytotoxicity against human HaCat Cells assessed as reduction in cell survival preincubated for 15 mins followed by irradiated with light at 81 J/cm^2 for 15 mins and measured after 24 hrs by CCK-8 assay; type: cell-based; details: light or radiation study
[20] = test system: Candida albicans; experiment: Photodynamic antimicrobial activity against Candida albicans ATCC14053 assessed as reduction in viable cells log count at 0.5 uM preincubated in dark for 15 mins followed by light irradiation at 81 J/cm^2 dose for 15 mins and measured after 36 hrs; type: functional; details: time 36.5 hrs
[21] = test system: Escherichia coli; experiment: Photodynamic antimicrobial activity against Escherichia coli ATCC25922 assessed as bacterial clearance ratio at 1.25 uM preincubated for 15 mins in dark followed by irradiation with 54 J/cm^2 light for 10 mins and measured after 36 hrs; type: functional, ATCC 25922; details: time 2185 min, 36.42 h
[22] = test system: Staphylococcus aureus; experiment: (§1) In vivo antibacterial activity against Staphylococcus aureus ATCC29213 infected in Swiss albino mouse assessed as wound healing at 10 mg treated on day 2 post infection and followed by irradiation with 81 J/cm^2 light for 15 mins and measured every 3 days upto 8 days; type: functional, organism-based; details: time 8.0 day
[23] = test system: Staphylococcus aureus; experiment: Induction of morphological changes in Staphylococcus aureus ATCC 29213 at 10 uM preincubated for 15 mins followed by light irradiation at 90 mW/cm2 for 15 mins by SEM analysis; type: functional, organism-based; details: time 30.0 min
[24] = test system: Escherichia coli; experiment: Photodynamic antimicrobial activity against Escherichia coli ATCC25922 assessed as bacterial clearance ratio at 1.25 uM preincubated for 15 mins in dark followed by irradiation with 27 J/cm^2 light for 5 mins and measured after 36 hrs; type: functional, ATCC 25922; details: time 2180 min, 36.33 h
[25] = test system: Cell membrane; experiment: Induction of cell membrane disruption in Staphylococcus aureus ATCC29213 at 2.5 uM preincubated for 15 mins followed by irradiated with 81 J/cm^2 light for 15 mins by DAPI staining based confocal laser scanning microscopic analysis; details: time 30.0 min
[26] = test system: Staphylococcus aureus; experiment: Photodynamic antimicrobial activity against Staphylococcus aureus […] assessed as decrease in viable cell log count at 5 uM preincubated for 15 mins followed by light irradiation at 81 J/cm^2 dose for 15 mins and measured after 36 hrs; type: functional; details: time 36.5 hrs
[27] = test system: Staphylococcus aureus; experiment: Photodynamic antimicrobial activity against methicillin resistant Staphylococcus aureus ATCC43300 assessed as log count reduction in viable cells at 0.625 uM preincubated in dark for 15 mins followed by light irradiation at 81 J/cm^2 dose for 15 mins and measured after 36 hrs; type: functional; details: time 36.5 hrs
[28] = test system: Escherichia coli; experiment: Photodynamic antimicrobial activity against Escherichia coli ATCC25922 assessed as bacterial clearance ratio at 1.25 uM preincubated for 15 mins in dark followed by irradiation with 81 J/cm^2 light for 15 mins and measured after 36 hrs; type: functional, ATCC 25922; details: time 2190 min, 36.5 h
[29] = test system: Candida albicans; experiment: Induction of ROS generation in Candida albicans ATCC14053 at 0.16 to 20 uM preincubated for 15 mins followed by irradiation with 81 J/cm^2 light for 15 mins by DCFH-DA staining-based fluorescence microscopy analysis; type: functional, organism-based; details: dose 0.16-20 µM, time 30.0 min
[30] = test system: Escherichia coli; experiment: Induction of morphological changes in Escherichia coli ATCC 25922 at 10 uM preincubated for 15 mins followed by light irradiation at 90 mW/cm2 for 15 mins by SEM analysis; type: functional, organism-based; details: time 30.0 min
[31] = test system: Escherichia coli; experiment: Photodynamic antimicrobial activity against Escherichia coli ATCC25922 assessed as bacterial clearance ratio at 1.25 uM preincubated for 15 mins in dark followed by irradiation with 81 J/cm^2 light for 20 to 25 mins and measured after 36 hrs; type: functional, ATCC 25922; details: time 2195-2200 min
[32] = test system: HaCaT; experiment: Dark toxicity against human HaCat cells assessed as reduction in cell survival upto 20 uM incubated under dark condition for 15 mins by CCK-8 assay; type: cell-based; details: 0.25 h
[33] = test system: Cell membrane; experiment: Induction of cell membrane disruption in Escherichia coli ATCC25922 at 5 uM preincubated for 15 mins followed by irradiated with 81 J/cm^2 light for 15 mins by DAPI staining based confocal laser scanning microscopic analysis; details: Escherichia coli ATCC 25922, time 30.0 min
[34] = test system: Staphylococcus aureus; experiment: Photodynamic antimicrobial activity against methicillin resistant Staphylococcus aureus ATCC43300 assessed as log count reduction in viable cells at 1.25 uM incubated in dark for 15 mins followed by light irradiation at 81 J/cm^2 dose for 15 mins and measured after 36 hrs; type: functional; details: time 36.5 hrs
[35] = test system: Staphylococcus aureus; experiment: Photodynamic antimicrobial activity against Staphylococcus aureus […] assessed as decrease in viable cell log count at 0.31 uM preincubated for 15 mins followed by light irradiation at 81 J/cm^2 dose for 15 mins and measured after 36 hrs; type: functional; details: time 36.5 hrs
[36] = test system: Staphylococcus aureus; experiment: as §1, with “assessed as reduction in neutophils count at 10” for “assessed as wound healing at 10”, “8 days by H and E staining analysis” for “8 days”; type: functional, organism-based; details: time 8.0 day

SMILES: CC1=C(I)C(C)=[N+]2C1=C(c1cccc[n+]1C)c1c(C)c(I)c(C)n1[B-]2(F)F.[I-]
- MIC [1]: 2.5 µM
- MIC [2]: 1.25 µM
- log(activity) [3]: 5.26
- log(activity) [4]: 2.53
- Drug uptake [5]: 4%
- Drug uptake [6]: 10%
- MIC [7]: 1.25 µM
- Activity [8]: 99.9%
- Activity [9]: 99.3%
- Activity [10]: 77%
- Drug uptake [11]: 4%
- logP at 20 h, 2 µM [12]: 0.17
- MIC [13]: 10 µM
- log(activity) [14]: 6.62

SMILES: CC1=C(I)C(C)=[N+]2C1=C(c1cc[n+](C)cc1)c1c(C)c(I)c(C)n1[B-]2(F)F.[I-]
- Activity [15]: Active
- MIC [1]: 2.5 µM
- MIC [2]: 1.25 µM
- Drug uptake [5]: 23%
- Drug uptake [6]: 53%
- MIC [7]: 1.25 µM
- Activity [8]: Active
- Activity [9]: 99.4%
- Activity [10]: 77%
- Drug uptake [11]: 65%
- logP at 20 h, 2 µM [12]: 2.14
- MIC [13]: 2.5 µM

SMILES: CC1=C(I)C(C)=[N+]2C1=C(c1ccccn1)c1c(C)c(I)c(C)n1[B-]2(F)F
- logP at 20 h, 2 µM [12]: > 4

SMILES: CC1=C(I)C(C)=[N+]2C1=C(c1ccc[n+](Cc3ccccc3)c1)c1c(C)c(I)c(C)n1[B-]2(F)F.[Br-]
- MIC [1]: 1.25 µM
- MIC [2]: 0.63 µM
- Drug uptake [5]: 25%
- Drug uptake [6]: 68%
- MIC [7]: 0.63 µM
- Activity [8]: >99.9999%
- Activity [10]: Active
- Drug uptake [11]: 80%
- logP at 20 h, 2 µM [12]: > 4
- MIC [13]: 2.5 µM

SMILES: CCCCCCC[n+]1cccc(C2=C3C(C)=C(I)C(C)=[N+]3[B-](F)(F)n3c(C)c(I)c(C)c32)c1.[I-]
- MIC [1]: 1.25 µM
- MIC [2]: 0.63 µM
- Drug uptake [5]: 27%
- Drug uptake [6]: 61%
- MIC [7]: 0.63 µM
- Activity [8]: >99.9999%
- Activity [10]: Active
- Drug uptake [11]: 72%
- logP at 20 h, 2 µM [12]: > 4
- MIC [13]: 2.5 µM

SMILES: CC1=C(I)C(C)=[N+]2C1=C(c1ccncc1)c1c(C)c(I)c(C)n1[B-]2(F)F
- logP at 20 h, 2 µM [12]: > 4

SMILES: CC1=C(I)C(C)=[N+]2C1=C(c1cccnc1)c1c(C)c(I)c(C)n1[B-]2(F)F
- logP at 20 h, 2 µM [12]: > 4

SMILES: CC1=C(I)C(C)=[N+]2C1=C(c1ccc[n+](C)c1)c1c(C)c(I)c(C)n1[B-]2(F)F.[I-]
- Activity [16]: Active
- Activity [17]: 99.99%
- Activity [18]: inactive
- IC50 [19]: 3.86 µM
- Activity [20]: 98%
- MIC [1]: 0.63 µM
- MIC [2]: 0.63 µM
- Activity [21]: 99.97%
- Activity [22]: Active
- Activity [23]: inactive
- Activity [24]: 99.23%
- Activity [25]: Active
- log(activity) [26]: 7.05
- Drug uptake [5]: 9%
- log(activity) [27]: 3.8
- Drug uptake [6]: 47%
- MIC [7]: 0.63 µM
- Activity [8]: >99.9999%
- Activity [28]: >99.9998%
- Activity [29]: Active
- Activity [30]: inactive
- Activity [9]: 99.9999%
- Activity [31]: >99.9998%
- Activity [10]: >99.9%
- Activity [32]: Non-Toxic
- Activity [33]: Active
- log(activity) [34]: >6.7
- Drug uptake [11]: 56%
- log(activity) [35]: 3.59
- Activity [36]: Active
- logP at 20 h, 2 µM [12]: 1.44
- MIC [13]: 1.25 µM
